# In patent US7384959B2, “Treatment of convulsive states” (priority 1999, dated 2008):
# Marks after values point to notes of the source that are not given here.
# How the values were obtained:
# [1] = cited from earlier work
# [2] = test system: rat; assay: Irwin Observation Test in the rat, subcutaneous route; assay type: in vivo; design: key to Mydriasis / Hyperthermia / Excitation: +=slight; ++=moderate
# Excerpt: (§1) The following Tables report the results of the Irwin, PTZ and barbital interaction (sleep induction) tests. Description of these tests may be found in Psychopharmacologica, 13:222-257 (1968), Krall et al, Epilepsia 19:409-428 (1978), and Simon et al, J. Pharmacol, Paris 13:241-252 (1982). See also Roux et al, Phoenix international Pharmacology Reports Nos. D30.2061/2 and D99.021/2.
# In Table 1, the following apply: +=slight; ++=moderate
# (X/N) indicates the number of rats showing the symptoms.
# Observations were performed at 15, 30, 60, 120, 180 minutes and 24 hours after administration.
# Hyperthermia and mydriasis were evaluated by comparison of the mean scores obtained in treated and control animals.
# [3] = test system: mouse; assay: liver damage (plasma alanine aminotransferase, microscopic examination for hepatic necrosis); assay type: in vivo
# Procedure: (§2) At very high doses, some inhibition of cytochrome P450 sub-types C8/9, 2C18/19 and 2D6 was found, but the concentrations required to inhibit enzyme activities (100 μM) were much greater than the maximum concentrations likely to be found in vivo and are therefore not likely to be clinically relevant.
# [4] = after intravenous dosing; Ding et al 1997; cited from earlier work
# [5] = test system: rat; assay: Pentylenetetrazole (PTZ) Seizure Test; assay type: in vivo; conditions: for NUMBER OF CLONIC CONVULSIONS number of rats / NUMBER OF DEATHS number of rats / NUMBER OF TONIC CONVULSIONS number of rats: 10 rats per group; for NUMBER OF CLONIC CONVULSIONS number of rats / NUMBER OF DEATHS number of rats / NUMBER OF TONIC CONVULSIONS number of rats / NUMBER OF CLONIC CONVULSIONS % antagonism / NUMBER OF DEATHS % antagonism / NUMBER OF TONIC CONVULSIONS % antagonism: observed during 60 minutes; for LATENCY TO CLONIC CONVULSIONS % change from control / LATENCY TO CLONIC CONVULSIONS mean ± s.e.m. / LATENCY TO DEATHS % change from control / LATENCY TO DEATHS mean ± sem. / LATENCY TO TONIC CONVULSIONS % change from control / LATENCY TO TONIC CONVULSIONS mean ± sem.: rat; for anticonvulsant activity in the PTZ Seizure Test: animal model, delivered subcutaneously
# Excerpt: as §1
# Table 2a reports mean results based on animals showing the symptoms (minimum=3 animals). Table 2b reports results observed during 60 minutes. In these Tables: Student's t Test: NS=Not Significant; *=p<0.05; ** p<0.01; ***=p<0.001 Fisher's Exact Test: No indication=Not Significant; **=p<0.01; ***=p<0.001
# [6] = test system: attention-deficit hyperactivity disorder (ADHD); conditions: Patrick et al 1987; cited from earlier work
# [7] = target: cytochrome P450 sub-type 2D6 (Homo sapiens, UniProt P10635); assay: effect on cytochrome P450 activity; assay type: in vitro ADME; conditions: some inhibition at very high doses
# Procedure: as §2
# [8] = test system: cytochrome P450 sub-type 2C18/19; assay: effect on cytochrome P450 activity; assay type: in vitro ADME; conditions: some inhibition at very high doses
# Procedure: as §2
# [9] = target: cytochrome P450 sub-type 2E1 (Homo sapiens, UniProt P05181); assay: effect on cytochrome P450 activity; assay type: in vitro ADME
# Procedure: as §2
# [10] = test system: cytochrome P450 sub-type C8/9; assay: effect on cytochrome P450 activity; assay type: in vitro ADME; conditions: some inhibition at very high doses
# Procedure: as §2
# [11] = target: T1, cytochrome P450 sub-type 1A2 (Homo sapiens, UniProt P05177); assay: effect on cytochrome P450 activity; assay type: in vitro ADME
# T1 sequence (P05177 1-516): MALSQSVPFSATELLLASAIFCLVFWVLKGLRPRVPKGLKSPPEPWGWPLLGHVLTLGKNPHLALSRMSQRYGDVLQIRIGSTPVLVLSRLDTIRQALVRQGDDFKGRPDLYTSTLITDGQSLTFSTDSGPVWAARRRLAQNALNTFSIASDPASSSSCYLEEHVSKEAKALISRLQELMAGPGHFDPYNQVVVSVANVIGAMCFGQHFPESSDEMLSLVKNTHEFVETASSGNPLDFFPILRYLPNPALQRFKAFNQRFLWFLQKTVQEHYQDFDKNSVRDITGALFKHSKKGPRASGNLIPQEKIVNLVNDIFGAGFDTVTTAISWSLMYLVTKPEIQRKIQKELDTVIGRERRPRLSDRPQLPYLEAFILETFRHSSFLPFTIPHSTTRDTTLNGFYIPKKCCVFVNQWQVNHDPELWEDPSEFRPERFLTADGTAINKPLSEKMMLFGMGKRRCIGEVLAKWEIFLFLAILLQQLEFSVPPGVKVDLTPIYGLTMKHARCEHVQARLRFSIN
# Procedure: as §2
# [12] = target: cytochrome P450 sub-type 3A4 (Homo sapiens, UniProt P08684); assay: effect on cytochrome P450 activity; assay type: in vitro ADME
# Procedure: as §2
# cytochrome P450 sub-type 2D6, sequence (P10635 whole entry): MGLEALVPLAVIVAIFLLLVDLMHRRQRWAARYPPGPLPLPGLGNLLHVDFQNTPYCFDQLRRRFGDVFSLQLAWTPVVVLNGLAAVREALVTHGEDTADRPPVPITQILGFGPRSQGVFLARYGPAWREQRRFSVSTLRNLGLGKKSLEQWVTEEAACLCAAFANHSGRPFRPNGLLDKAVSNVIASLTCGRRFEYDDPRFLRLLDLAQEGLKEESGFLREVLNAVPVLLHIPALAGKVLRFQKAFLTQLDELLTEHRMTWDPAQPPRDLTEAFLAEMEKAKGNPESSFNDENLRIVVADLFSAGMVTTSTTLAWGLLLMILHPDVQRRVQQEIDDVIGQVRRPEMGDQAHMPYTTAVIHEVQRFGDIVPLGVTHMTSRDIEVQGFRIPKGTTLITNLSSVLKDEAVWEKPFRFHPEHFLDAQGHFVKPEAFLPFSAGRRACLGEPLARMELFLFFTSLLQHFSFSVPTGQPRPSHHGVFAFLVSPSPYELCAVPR
# cytochrome P450 sub-type 2E1, sequence (P05181 whole entry): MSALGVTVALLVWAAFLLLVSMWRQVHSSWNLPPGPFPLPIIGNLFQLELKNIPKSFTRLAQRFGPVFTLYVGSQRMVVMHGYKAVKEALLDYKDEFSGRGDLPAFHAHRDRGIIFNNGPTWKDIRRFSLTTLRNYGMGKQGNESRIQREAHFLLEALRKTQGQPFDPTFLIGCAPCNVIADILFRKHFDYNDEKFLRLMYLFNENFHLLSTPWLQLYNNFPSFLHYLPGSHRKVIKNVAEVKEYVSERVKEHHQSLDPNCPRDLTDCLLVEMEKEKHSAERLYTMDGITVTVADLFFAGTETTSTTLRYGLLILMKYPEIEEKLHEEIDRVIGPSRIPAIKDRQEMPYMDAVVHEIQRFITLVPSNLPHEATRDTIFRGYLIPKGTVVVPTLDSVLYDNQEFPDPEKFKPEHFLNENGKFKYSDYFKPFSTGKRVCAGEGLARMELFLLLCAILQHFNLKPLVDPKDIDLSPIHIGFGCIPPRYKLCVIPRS
# cytochrome P450 sub-type 3A4, sequence (P08684 whole entry): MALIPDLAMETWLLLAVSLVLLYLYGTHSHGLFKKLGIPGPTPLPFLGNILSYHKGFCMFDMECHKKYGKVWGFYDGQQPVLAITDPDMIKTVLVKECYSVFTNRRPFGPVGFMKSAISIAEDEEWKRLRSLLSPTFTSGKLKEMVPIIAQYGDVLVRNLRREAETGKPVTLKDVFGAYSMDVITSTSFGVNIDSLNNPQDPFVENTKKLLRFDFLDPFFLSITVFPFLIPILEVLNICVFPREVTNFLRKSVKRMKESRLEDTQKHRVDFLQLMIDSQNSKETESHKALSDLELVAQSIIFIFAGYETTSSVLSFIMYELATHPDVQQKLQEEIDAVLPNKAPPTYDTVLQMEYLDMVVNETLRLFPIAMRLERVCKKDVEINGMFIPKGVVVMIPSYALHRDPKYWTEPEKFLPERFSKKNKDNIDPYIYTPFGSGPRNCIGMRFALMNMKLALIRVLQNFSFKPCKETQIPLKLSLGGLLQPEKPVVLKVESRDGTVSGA
compound,measurement,setting,value
"COC(=O)[C@@H](c1ccccc1)[C@@H]1CCCCN1 [l-MPH, l-threo-Methylphenidate]",systemic availability following oral dosing,[1],very little l-MPH enters the circulation or becomes available to the brain
same,Irwin test observation (cell wraps: No change),"[2]; 2 mg/kg s.c., rat",No
same,Mydriasis,"[2]; 4 mg/kg s.c., at 30′",Mydriasis +
same,Excitation,"[2]; 8 mg/kg s.c., at 30′",Excitation +
same,"Excitation, number of rats showing the symptoms (X/N)","[2]; 8 mg/kg s.c., at 30′",(2/3) at 30′
same,Mydriasis,"[2]; 8 mg/kg s.c., at 30′",Mydriasis +
same,"Stereotypies (sniffing), number of rats showing the symptoms (X/N)","[2]; 8 mg/kg s.c., at 30′",(1/3) at 30′
same,"Stereotypies (sniffing), number of rats showing the symptoms (X/N)","[2]; 16 mg/kg s.c., 30′ → 120′",(3/3) 30′ → 120′
same,Excitation,"[2]; 16 mg/kg s.c., 60′ → 120′",Excitation +
same,"Excitation, number of rats showing the symptoms (X/N)","[2]; 16 mg/kg s.c., 60′ → 120′",(2/3) 60′ → 120′
same,"Stereotypies (head movements), number of rats showing the symptoms (X/N)","[2]; 16 mg/kg s.c., 60′ → 120′",(1/3) 60′ → 120′
same,Mydriasis,"[2]; 16 mg/kg s.c., at 30′",Mydriasis + at 30′
same,Excitation,"[2]; 32 mg/kg s.c., 15′ → 30′",Excitation +
same,"Excitation, number of rats showing the symptoms (X/N)","[2]; 32 mg/kg s.c., 15′ → 30′",(3/3) 15′ → 30′
same,"↑ Reactivity to touch, number of rats showing the symptoms (X/N)","[2]; 32 mg/kg s.c., 15′ → 30′",(3/3) 15′ → 30′
same,Mydriasis,"[2]; 32 mg/kg s.c., 15′ → 120′",(++ 15′ →
same,"Stereotypies (sniffing), number of rats showing the symptoms (X/N)","[2]; 32 mg/kg s.c., 15′ → 120′",(3/3)
same,"↑ Fear, number of rats showing the symptoms (X/N)","[2]; 32 mg/kg s.c., 15′ → 120′",(3/3)
same,Hyperthermia,"[2]; 32 mg/kg s.c., at 30′ and 120′",Hyperthermia +
same,Mydriasis,"[2]; 32 mg/kg s.c., at 180′",(+ at 180′)
same,Irwin test observations at higher doses,"[2]; 64, 128 and 256 mg/kg, s.c., rat","all rats exhibited further characteristics including sedation, fore-paw treading, stereotypes (head movements) and decreased muscle tone"
same,signs of stimulation in the Irwin profile,[2]; at doses having anti-convulsant effects,Slight signs of stimulation were noted
same,sedation in the Irwin profile,[2]; at the doses used in the PTZ test,sedation was not noted
same,liver damage as assessed by increased plasma level of alanine aminotransferase and microscopic examination for hepatic necrosis,[3],not to be linked with liver damage
same,detection in the brain,[4],detected in the brain
same,NUMBER OF CLONIC CONVULSIONS number of rats,[5]; 8 mg/kg s.c. −30 min,10
same,NUMBER OF DEATHS number of rats,[5]; 8 mg/kg s.c. −30 min,10
same,NUMBER OF TONIC CONVULSIONS number of rats,[5]; 8 mg/kg s.c. −30 min,10
same,NUMBER OF CLONIC CONVULSIONS % antagonism,[5]; 8 mg/kg s.c. −30 min,0%
same,NUMBER OF DEATHS % antagonism,[5]; 8 mg/kg s.c. −30 min,0%
same,NUMBER OF TONIC CONVULSIONS % antagonism,[5]; 8 mg/kg s.c. −30 min,0%
same,LATENCY TO CLONIC CONVULSIONS % change from control,[5]; 8 mg/kg s.c. −30 min,+38%
same,LATENCY TO CLONIC CONVULSIONS mean ± s.e.m.,[5]; 8 mg/kg s.c. −30 min,756.0 ± 105.0 NS sec
same,LATENCY TO DEATHS % change from control,[5]; 8 mg/kg s.c. −30 min,+20%
same,LATENCY TO DEATHS mean ± sem.,[5]; 8 mg/kg s.c. −30 min,1566.1 ± 199.9 NS sec
same,LATENCY TO TONIC CONVULSIONS % change from control,[5]; 8 mg/kg s.c. −30 min,+23%
same,LATENCY TO TONIC CONVULSIONS mean ± sem.,[5]; 8 mg/kg s.c. −30 min,1443.0 ± 198.2 NS sec
same,NUMBER OF CLONIC CONVULSIONS number of rats,[5]; 16 mg/kg s.c. −30 min,9
same,NUMBER OF DEATHS number of rats,[5]; 16 mg/kg s.c. −30 min,7
same,NUMBER OF TONIC CONVULSIONS number of rats,[5]; 16 mg/kg s.c. −30 min,8
same,NUMBER OF CLONIC CONVULSIONS % antagonism,[5]; 16 mg/kg s.c. −30 min,10%
same,NUMBER OF DEATHS % antagonism,[5]; 16 mg/kg s.c. −30 min,30%
same,NUMBER OF TONIC CONVULSIONS % antagonism,[5]; 16 mg/kg s.c. −30 min,20%
same,LATENCY TO CLONIC CONVULSIONS % change from control,[5]; 16 mg/kg s.c. −30 min,+99%
same,LATENCY TO CLONIC CONVULSIONS mean ± s.e.m.,[5]; 16 mg/kg s.c. −30 min,1086.7 ± 213.6* sec
same,LATENCY TO DEATHS % change from control,[5]; 16 mg/kg s.c. −30 min,+35%
same,LATENCY TO DEATHS mean ± sem.,[5]; 16 mg/kg s.c. −30 min,1757.1 ± 209.8* sec
same,LATENCY TO TONIC CONVULSIONS % change from control,[5]; 16 mg/kg s.c. −30 min,+53%
same,LATENCY TO TONIC CONVULSIONS mean ± sem.,[5]; 16 mg/kg s.c. −30 min,1785.0 ± 292.2* sec
same,NUMBER OF CLONIC CONVULSIONS number of rats,[5]; 32 mg/kg s.c. −30 min,10
same,NUMBER OF DEATHS number of rats,[5]; 32 mg/kg s.c. −30 min,3++
same,NUMBER OF TONIC CONVULSIONS number of rats,[5]; 32 mg/kg s.c. −30 min,3++
same,NUMBER OF CLONIC CONVULSIONS % antagonism,[5]; 32 mg/kg s.c. −30 min,0%
same,NUMBER OF DEATHS % antagonism,[5]; 32 mg/kg s.c. −30 min,70%
same,NUMBER OF TONIC CONVULSIONS % antagonism,[5]; 32 mg/kg s.c. −30 min,70%
same,LATENCY TO CLONIC CONVULSIONS % change from control,[5]; 32 mg/kg s.c. −30 min,+226%
same,LATENCY TO CLONIC CONVULSIONS mean ± s.e.m.,[5]; 32 mg/kg s.c. −30 min,1782.0 ± 161.7*** sec
same,LATENCY TO DEATHS % change from control,[5]; 32 mg/kg s.c. −30 min,+150%
same,LATENCY TO DEATHS mean ± sem.,[5]; 32 mg/kg s.c. −30 min,3260.0 ± 121.7*** sec
same,LATENCY TO TONIC CONVULSIONS % change from control,[5]; 32 mg/kg s.c. −30 min,+162%
same,LATENCY TO TONIC CONVULSIONS mean ± sem.,[5]; 32 mg/kg s.c. −30 min,3070.0 ± 164.6*** sec
same,anticonvulsant activity in the PTZ Seizure Test,[5],has anticonvulsant potential
same,anticonvulsant activity in the PTZ Seizure Test,[5]; listed as l-enantiomer,possess anticonvulsant activity
same,pharmacological action in the treatment of ADHD,[6],no action on the part of the l-enantiomer (l-MPH) has been detected
same,"concentration required to inhibit enzyme activity, cytochrome P450 sub-type 2D6",[7],100 µM
same,"concentration required to inhibit enzyme activity, cytochrome P450 sub-type 2C18/19",[8],100 µM
same,effect on activity of cytochrome P450 sub-type 2E1,[9],little or no effect
same,"concentration required to inhibit enzyme activity, cytochrome P450 sub-type C8/9",[10],100 µM
same,effect on activity of cytochrome P450 sub-type 1A2,[11],little or no effect
same,effect on activity of cytochrome P450 sub-type 3A4,[12],little or no effect
